# Results published in patent US20260078335A1, “MICROBIAL ENHANCED COMPOSITIONS COMPRISING SURFACTANT BLENDS WHICH OVERCOME ANTAGONISTIC SURFACTANT INCOMPATIBILITY” (Stepan Company, priority 2023, published 2026).
# Like-named read-outs stand apart in the source and are kept apart here.
# Experiments:
# Format in all cases: cell-based
# fungi = assay: preservative screening test, fungal; conditions: reduction of live count
# Protocol: A preservative screening study was performed to determine a sufficient amount of preservative to include in selected MEC formulations to provide efficacy against pathogenic bacteria and fungi. […] Test formulations were prepared by adding different preservatives in different amounts to the base formulations. Each test formulation was tested for efficacy against pathogenic organisms using a preservative screening test. For the screening test, microorganisms are grown separately according to industry standards described in PCPC Test Method M-7 “A Rapid Method for Preservation Testing of Water-Miscible Personal Care Products”, and combined as an inoculum challenge prior to introduction to the formulation test sample. The inoculum is added to each test formulation for predetermined time points, and after appropriate nutrition, the test formulations are evaluated for remaining live count. Reduction of live count is calculated against a control, and a sample showing sufficient percent reduction is accepted as an effectively preserved formulation.
# pathogenic bacteria = assay: preservative screening test, bacterial; conditions: reduction of live count
# Protocol: (§1) A preservative screening study was performed to determine a sufficient amount of preservative to include in selected MEC formulations to provide efficacy against pathogenic bacteria and fungi. The base formulations used in the study were a formulation similar to Composition A from Example 5, but without the spores, and a formulation similar to the Example 14 formulation, but without the spores and 2-phenoxyethanol. Test formulations were prepared by adding different preservatives in different amounts to the base formulations. Each test formulation was tested for efficacy against pathogenic organisms using a preservative screening test. For the screening test, microorganisms are grown separately according to industry standards described in PCPC Test Method M-7 “A Rapid Method for Preservation Testing of Water-Miscible Personal Care Products”, and combined as an inoculum challenge prior to introduction to the formulation test sample. The inoculum is added to each test formulation for predetermined time points, and after appropriate nutrition, the test formulations are evaluated for remaining live count. Reduction of live count is calculated against a control, and a sample showing sufficient percent reduction is accepted as an effectively preserved formulation. Table 4 provides the details of the preservative and amount used in each test formulation and the results of the screen testing.
# [1] = system: pathogenic bacteria and fungi; assay: preservative screening test, overall result
# Protocol: as §1
# [2] = system: beneficial microorganisms; assay: compatibility with beneficial microorganisms (description, test not specified); conditions: stated in the description, no test details
# Protocol: Incompatibility between a surfactant and a beneficial microorganism has been investigated in various ways, such as a standard Zone of Inhibition test, a standard agar plating test, or a standard resazurin (7-hydroxy-10-oxidophenoxazin-10-ium-3-one, sodium) (a blue fluorogenic dye) compatibility assay. In a Zone of Inhibition test, microorganisms are grown, cultured, diluted down to target levels, and then applied to a Petri dish containing agar nutrients. Test samples containing the surfactant of interest are diluted and loaded into an agar well created within the agar nutrient. The plates are incubated and microorganism growth is allowed to develop. The test sample diffuses through the agar and, if the surfactant in the test sample has an inhibitory effect on the microorganism, a lack of growth halo will be observed around the sample loaded well. This halo is referred to as the zone of inhibition. The larger the zone, the bigger the effect of inhibition. Major suitability limitations for non-antibiotics test samples for this test method are inherent large dilution of active, agar diffusion challenges, and nutrient media incompatibilities (neutralization, precipitation, etc). Although this method has been used in the medical field for antibiotics very successfully for decades, it has low suitability when testing non-antibiotic samples. In a standard agar plating test, test samples containing the surfactant of interest and microorganisms are exposed, diluted several orders of magnitude, and plated onto a nutritive agar that is incubated. After an incubation period appropriate for the species, the microorganism growth pattern is evaluated against appropriate controls. […] The test samples are incubated and then inspected for colorometric and fluorescence change. Test samples that are blue and have low fluorescence indicate no biological activity and incompatibility between the surfactant and the microorganism. Test samples that are pink and have high fluorescence indicate biological activity and compatibility of the surfactant with the microorganism. […]
# Bacillus spore blend = assay: un-dyed EVOO test for germination and growth; conditions: 0.2 wt % active surfactant, 1×10^7 CFU/g Bacillus spore blend; 5 days shaking; FIG. 11
# Protocol: Replicate test compositions were prepared to evaluate the ability of the alkyl sarcosinate and alkyl betaine surfactant blend to overcome the antagonistic incompatibility between each surfactant individually and the bacterial spores. The formulation for testing comprised 20 wt % sodium lauroyl sarcosinate (30% actives), 32 wt % cetyl betaine (30% actives), 3.5 wt % of a commercially available Bacillus spore blend containing 100×10^9 CFU/g Bacillus spores, 4 wt % potassium nitrate, lactic acid (88% active) to adjust the pH to 5.5-6.0, and the remainder water. The test compositions were prepared by diluting the test formulation in water to 0.3% strength, and adding 2 wt % of 3.3 g/L Nutrient Mix (3 g/L Tryptic Soy broth and 0.3 g/L Yeast Extract). Germination and growth of bacterial spores were visually evaluated using an un-dyed EVOO test. […] Growth and biological activity of the microorganism is evident from haze that develops in the test composition, which can be visually detected. […]
# The test compositions were visually evaluated for germination and growth of the bacterial spores using the un-dyed EVOO test described above, except that the test compositions were photographed after 5 days of orbital-mixer shaking at setting “5”.
# Bacillus spores = system: Bacillus spores
# [3] = 1.5% active, base formula Example 5, pH 6.5-7.0
# [4] = 1.5% active, base formula Example 5, pH 9.0
# [5] = 1.5% active, base formula Example 14, pH 9.0
# [6] = 1.5% active, base formula Example 14, pH N/A
# [7] = 1.0% active, base formula Example 14, pH 5.0
# [8] = resazurin assay, FIG. 1, inhibitory if composition with less than 1.0 g/L surfactant remains blue, no fluorescence
compound,measurement,setting,value
OCCOc1ccccc1 [2-phenoxyethanol],Fungal 24 hours,fungi; [3],<50%
same,Fungal 7 days,fungi; [3],<50%
same,Fungal 24 hours,fungi; [4],29.3%
same,Fungal 7 days,fungi; [4],<50%
same,Fungal 24 hours,fungi; [5],75.0%
same,Fungal 7 days,fungi; [5],95.6%
same,Fungal 7 days,fungi; [6],<50%
same,Bacterial 24 hours,pathogenic bacteria; [3],<50%
same,Bacterial 7 days,pathogenic bacteria; [3],<50%
same,Bacterial 24 hours,pathogenic bacteria; [4],99.4%
same,Bacterial 7 days,pathogenic bacteria; [4],>99.6%
same,Bacterial 24 hours,pathogenic bacteria; [5],98.4%
same,Bacterial 7 days,pathogenic bacteria; [5],>99.6%
same,Bacterial 7 days,pathogenic bacteria; [6],87.5%
same,efficacy against pathogenic bacteria and fungi,"[1]; 1.5 wt %, even at a pH of 9.0, either base formulation",not sufficient
O=C(O)c1ccccc1 [Benzoic Acid],Fungal 24 hours,fungi; [7],99.6%
same,Fungal 7 days,fungi; [7],99.6%
same,Bacterial 24 hours,pathogenic bacteria; [7],>99.6%
same,Bacterial 7 days,pathogenic bacteria; [7],>99.6%
same,Result,[1]; [7],Pass
C=CCCCCCCCC(=O)N(C)C [STEPOSOL® MET-10U],compatibility with the beneficial microorganisms,[2],compatible
O.O.O=C([O-])CC(O)(CC(=O)[O-])C(=O)[O-].[Na+].[Na+].[Na+] [sodium citrate dihydrate],compatibility with the beneficial microorganisms,[2],compatible
O=C([O-])[C@H](O)[C@@H](O)[C@H](O)[C@H](O)CO.[Na+] [sodium gluconate],compatibility with the beneficial microorganisms,[2],compatible
CCCCCCCCCCCCOS(=O)(=O)[O-].[Na+] [sodium lauryl sulfate],germination and growth of bacterial spores,Bacillus spore blend,strong inhibition
cocoamidopropyl betaine [CAPB],compatibility with Bacillus spores,Bacillus spores; [8],inhibitory
lauramine oxide,germination and growth of bacterial spores,Bacillus spore blend,strong inhibition
lauryl alcohol with 8 moles of ethylene oxide [laureth 8EO],compatibility with Bacillus spores,Bacillus spores,inhibitory
sodium lauryl ether sulfate 2EO [SLES],compatibility with Bacillus spores,Bacillus spores; [8],inhibitory
